Experimental data: the supplement of paper PMC6045584
± gives the standard deviation of the averaged measurements.

What was measured:
[1] = compound: CC/C(=C(\c1ccc(O)cc1)c1ccc(OCCN(C)C)cc1)c1ccccc1 [AFIMOXIFENE]; assay: surviving fraction relative to DMSO-only wells; higher = less growth inhibition; details: exposure time: 5 days
Summary of the method: (§1)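 A line counted only if its three screens reached replicate Pearson r >0.7 and median Z' >0.3. Tumour cells in log phase were seeded at 250–500 per well in 384-well plates and, after 24 hours, kept in continuous contact with inhibitors at 0.5, 1, 5, 10, 50, 100, 500 and 1000 nM for five days. Surviving fraction was taken from CellTiter-Glo luminescence relative to the median of DMSO-only wells.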

[2] = compound: COc1cc2nccc(Oc3ccc(NC(=O)C4(C(=O)Nc5ccc(F)cc5)CC4)cc3)c2cc1OC [CABOZANTINIB]; assay: as above; details: exposure time: 5 days
Summary of the method: as §1

Test System | surviving fraction ([1]; 0.5 nM) | surviving fraction ([1]; 1 nM) | surviving fraction ([1]; 5 nM) | surviving fraction ([1]; 10 nM) | surviving fraction ([1]; 50 nM) | surviving fraction ([1]; 100 nM) | surviving fraction ([1]; 500 nM) | surviving fraction ([1]; 1000 nM) | surviving fraction ([2]; 0.5 nM) | surviving fraction ([2]; 1 nM) | surviving fraction ([2]; 5 nM) | surviving fraction ([2]; 10 nM) | surviving fraction ([2]; 50 nM) | surviving fraction ([2]; 100 nM) | surviving fraction ([2]; 500 nM) | surviving fraction ([2]; 1000 nM)
HCC1806 BREAST | 1.04 ± 0.065 | 1.1 ± 0.077 | 1.16 ± 0.12 | 1.14 ± 0.048 | 1.15 ± 0.026 | 1.13 ± 0.072 | 0.965 ± 0.028 | 0.682 ± 0.064 | 0.863 ± 0.075 | 1.06 ± 0.057 | 1.092 ± 0.0075 | 1.06 ± 0.073 | 1.19 ± 0.078 | 1.08 ± 0.12 | 1.08 ± 0.021 | 1.09 ± 0.13
HCC1954 BREAST | 1.01 ± 0.15 | 1 ± 0.0018 | 1.31 ± 0.18 | 1.33 ± 0.1 | 0.9337 ± 0.0067 | 1.02 ± 0.056 | 0.973 ± 0.1 | 0.883 ± 0.12 | 0.955 ± 0.018 | 1.04 ± 0.02 | 1.03 ± 0.13 | 1.02 ± 0.16 | 1.1 ± 0.073 | 0.921 ± 0.0035 | 1.0215 ± 0.00071 | 1.02 ± 0.055
HCT15 LARGE INTESTINE | 1.08 ± 0.077 | 1.05 ± 0.055 | 1.07 ± 0.085 | 1.06 ± 0.097 | 1.04 ± 0.054 | 1.07 ± 0.025 | 1.07 ± 0.054 | 1.09 ± 0.056 | 0.952 ± 0.044 | 0.95 ± 0.06 | 0.943 ± 0.044 | 0.951 ± 0.073 | 0.966 ± 0.036 | 1.02 ± 0.037 | 0.994 ± 0.065 | 1.04 ± 0.06
HELA CERVIX | 1.05 ± 0.063 | 1.02 ± 0.11 | 1.08 ± 0.061 | 1 ± 0.055 | 1.1 ± 0.071 | 1.11 ± 0.065 | 1.17 ± 0.058 | 1.08 ± 0.12 | 1.01 ± 0.028 | 0.98 ± 0.021 | 0.999 ± 0.033 | 0.955 ± 0.042 | 1.08 ± 0.036 | 1.06 ± 0.05 | 1.11 ± 0.088 | 1.1 ± 0.028
HOS BONE | 1.02 ± 0.013 | 1.03 ± 0.016 | 1.06 ± 0.012 | 1.03 ± 0.013 | 1.12 ± 0.014 | 1.08 ± 0.031 | 1.05 ± 0.024 | 0.974 ± 0.0061 | 1.02 ± 0.011 | 1.001 ± 0.001 | 1.02 ± 0.015 | 0.9757 ± 0.008 | 1.015 ± 0.0092 | 0.984 ± 0.02 | 0.924 ± 0.019 | 0.89 ± 0.014
